In US20250304582A1, “Bicyclic Ureas As Kinase Inhibitors” (Incyte Corporation, priority 2024, published 2025) one finds IC50 data, which are given here for 15 compounds.

Experiment [1] concerns the target T1, catalytic domain (JH1, amino acids 826-1132) of human JAK2 (Homo sapiens, UniProt O60674).
T1 construct: catalytic domain (JH1, amino acids 826-1132) of human JAK2; FLAG (N); purchased Carna Biosciences 08-445-20N; host or cells: baculovirus expression system
The experiment is described as follows: JAK2 LanthaScreen JH1 Binding Assay. The following applies: 50 nM fluorescent JAK2-JH1 tracer, 2 hours at 25° C.; read-out: JH1 BIND (EX. A). An outline of the steps: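 FLAG-tagged biotinylated JAK2 JH1 (1.5 nM) was incubated 2 h at 25° C with compound, 50 nM fluorescent tracer and 0.5 nM Streptavidin-Tb in Tris pH 7.5 buffer. Tracer displacement read by TR-FRET; nonspecific binding defined with 2 mM ATP. IC50 from four-parameter fit.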
Background: TR-FRET usually uses a lanthanide donor and a delayed reading to cut background.

In experiment [2] the target is T2, pseudo-kinase domain (JH2, amino-acids 536-812) of human Wild Type JAK2 (Homo sapiens, UniProt O60674, F794H/W659A/W777A).
T2 construct: JH2, amino-acids 536-812 with 3 surface mutations W659A, W777A, F794H; His (C); purchased BPS Bioscience 79463; host or cells: baculovirus expression system
T2 sequence (O60674 536-812 W659A/W777A/F794H): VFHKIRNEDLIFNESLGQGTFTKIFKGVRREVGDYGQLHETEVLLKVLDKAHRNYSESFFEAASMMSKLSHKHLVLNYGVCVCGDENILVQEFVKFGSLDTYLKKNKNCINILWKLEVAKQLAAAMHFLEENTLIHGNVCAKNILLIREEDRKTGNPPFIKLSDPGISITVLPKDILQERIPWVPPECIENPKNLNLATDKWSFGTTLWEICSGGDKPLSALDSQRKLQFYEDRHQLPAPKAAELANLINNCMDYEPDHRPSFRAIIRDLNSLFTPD
Nature of the experiment: JAK2 LanthaScreen JH2-WT Binding Assay. Particulars: 50 nM Fluorescent JAK2-JH2 Tracer, 1 hour at 25° C.; read-out: JH2 BIND WT (EX. B). In short, it runs like this: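 JH2 domain (0.145 nM; His-Avi-tagged, biotinylated, baculovirus-expressed) incubated 1 h at 25° C. with compounds, 50 nM fluorescent JH2 tracer and 0.25 nM streptavidin-Tb in pH 7.5 Tris buffer with MgCl2, EGTA, DTT. Non-specific binding defined with 2 mM ATP. TR-FRET tracer displacement read; IC50 from four-parameter fit.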

For experiment [3], the target named is T3, pseudo-kinase domain (JH2, amino-acids 536-812) of human V617F mutant JAK2 (Homo sapiens, UniProt O60674, F794H/V617F/W659A/W777A).
T3 construct: JH2, amino-acids 536-812 with 3 surface mutations W659A, W777A, F794H; His (C); purchased BPS Bioscience 79498; host or cells: baculovirus expression system
T3 sequence (O60674 536-812 V617F/W659A/W777A/F794H): as the sequence (O60674 536-812 W659A/W777A/F794H) above, with V82F counted along it
The experiment is described as follows: JAK2 LanthaScreen JH2-V617F Binding Assay. Particulars: 50 nM Fluorescent JAK2-JH2 Tracer, 1 hour at 25° C.; read-out: JH2 BIND V617F (Ex. C). In short, it runs like this:
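Biotinylated His-Avi-tagged JH2 construct (536-812, W659A/W777A/F794H) at 0.26 nM, with 50 nM fluorescent JH2 tracer and 0.25 nM streptavidin-Tb, in pH 7.5 Tris/MgCl2 buffer; 1 h at 25° C. Non-specific binding defined with 2 mM ATP. IC50 derived from TR-FRET signal by four-parameter dose-response fit.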

Experiment [4] addresses T4, catalytic domain (JH1, amino acids 808-1132) of human JAK2 (Homo sapiens, UniProt O60674).
T4 construct: catalytic domain (JH1, amino acids 808-1132) of human JAK2; His (N); purchased BPS Bioscience 40450; host or cells: baculovirus expression system
The experiment is described as follows: JAK2 HTRF Enzyme Activity Assay. The format is biochemical. Particulars: ATP (30 μM or 1 mM; not stated which for the table), 60 minutes at 25° C.; read-out: JAK2 HTRF (Ex. D). In short, it runs like this:
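N-terminal His-tagged, baculovirus-expressed JH1 domain (0.015 nM) reacts 60 min at 25 °C with 500 nM biotinylated peptide and 30 μM or 1 mM ATP in Tris pH 7.5/10 mM MgCl2. Phosphorylation is detected by HTRF with Eu-anti-phosphotyrosine (PY20) and streptavidin-APC after EDTA stop. IC50 comes from four-parameter fits.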

SMILES strings stand for the structures. pIC50: −log10 of the molar value. A value given as a limit tells only on which side of the number the result lay.

T1 sequence (O60674 826-1132): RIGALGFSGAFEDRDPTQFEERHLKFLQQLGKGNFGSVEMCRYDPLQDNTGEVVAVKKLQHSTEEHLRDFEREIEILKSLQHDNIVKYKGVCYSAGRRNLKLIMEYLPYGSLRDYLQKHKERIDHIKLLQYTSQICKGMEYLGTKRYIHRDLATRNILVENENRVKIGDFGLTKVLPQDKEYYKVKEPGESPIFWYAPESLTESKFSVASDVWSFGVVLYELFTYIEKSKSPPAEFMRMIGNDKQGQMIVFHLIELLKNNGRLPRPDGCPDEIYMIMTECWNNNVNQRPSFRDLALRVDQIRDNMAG
T4 sequence (O60674 808-1132): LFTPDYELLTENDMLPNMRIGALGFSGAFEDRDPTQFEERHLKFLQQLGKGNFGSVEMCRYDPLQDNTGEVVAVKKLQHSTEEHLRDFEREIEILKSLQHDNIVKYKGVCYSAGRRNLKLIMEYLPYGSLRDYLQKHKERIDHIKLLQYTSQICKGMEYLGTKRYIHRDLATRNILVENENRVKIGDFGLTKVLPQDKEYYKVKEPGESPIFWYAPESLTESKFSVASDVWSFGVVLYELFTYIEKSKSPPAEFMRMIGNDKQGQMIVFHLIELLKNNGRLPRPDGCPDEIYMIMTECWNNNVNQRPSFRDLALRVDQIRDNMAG

Consider `COC(=O)N[C@@H]1CC[C@@H](n2c(=O)n(C)c3cnc(Nc4ccc5cc(Cl)cc(C(F)(F)F)c5n4)cc32)C1` [Example 25, Methyl ((1R,3R)-3-(6-((6-chloro-8-(trifluoromethyl)quinolin-2-yl)amino)-3-methyl-2-oxo-2,3-dihydro-1H-imidazo[4,5-c]pyridin-1-yl)cyclopentyl)carbamate], for which the pIC50 in experiment [1] was under 6.00; in experiment [2], at least 8.00; in experiment [3], at least 8.00; in experiment [4], under 6.00.

Regarding `[2H]C([2H])([2H])n1c(=O)n([C@@H]2CC[C@@H](NC(=O)OC)C2)c2cc(Nc3ccc4cc(C#N)cc(C(F)(F)F)c4n3)ncc21` [Example 26, Methyl ((1R,3R)-3-(6-((6-cyano-8-(trifluoromethyl)quinolin-2-yl)amino)-3-(methyl-d3)-2-oxo-2,3-dihydro-1H-imidazo[4,5-c]pyridin-1-yl)cyclopentyl)carbamate], the pIC50 in experiment [1] is under 6.00; in experiment [2] it was at least 8.00; in experiment [3], at least 8.00; in experiment [4], under 6.00.

Consider `[2H]C([2H])([2H])n1c(=O)n([C@@H]2CC[C@@H](NC(=O)OC)C2)c2cc(Nc3ccc4cc(F)cc(C(F)(F)F)c4n3)ncc21` [Example 27, Methyl ((1R,3R)-3-(6-((6-fluoro-8-(trifluoromethyl)quinolin-2-yl)amino)-3-(methyl-d3)-2-oxo-2,3-dihydro-1H-imidazo[4,5-c]pyridin-1-yl)cyclopentyl)carbamate], for which the pIC50 in experiment [1] was under 6.00; in experiment [2], at least 8.00; in experiment [3] it was at least 8.00; in experiment [4], under 6.00.

On to `[2H]C([2H])([2H])n1c(=O)n([C@@H]2CC[C@@H](NC(=O)OC)C2)c2cc(Nc3ccc4cncc(C)c4n3)ncc21` [Example 28, Methyl ((1R,3R)-3-(3-(methyl-d3)-6-((8-methyl-1,6-naphthyridin-2-yl)amino)-2-oxo-2,3-dihydro-1H-imidazo[4,5-c]pyridin-1-yl)cyclopentyl)carbamate], for which the pIC50 in experiment [1] was under 6.00; in experiment [2] it was at least 8.00; in experiment [3], at least 8.00; in experiment [4], under 6.00.

With `[2H]C([2H])([2H])n1c(=O)n([C@@H]2CC[C@@H](NC(=O)OC)C2)c2cc(Nc3cc(C(C)(C)O)c4nccc(C)c4n3)ncc21` [Example 29, Methyl ((1R,3R)-3-(6-((4-(2-hydroxypropan-2-yl)-8-methyl-1,5-naphthyridin-2-yl)amino)-3-(methyl-d3)-2-oxo-2,3-dihydro-1H-imidazo[4,5-c]pyridin-1-yl)cyclopentyl)carbamate], the pIC50 is under 6.00 in experiment [1], at least 8.00 in experiment [2], at least 8.00 in experiment [3] and under 6.00 in experiment [4].

`[2H]C([2H])([2H])n1c(=O)n([C@@H]2CC[C@@H](NC(=O)OC)C2)c2cc(Nc3ccc4ncc(C(C)C(F)(F)F)n4n3)ncc21` (stereo partly drawn) [Example 30, Methyl ((1R,3R)-3-(3-(methyl-d3)-2-oxo-6-((3-(1,1,1-trifluoropropan-2-yl)imidazo[1,2-b]pyridazin-6-yl)amino)-2,3-dihydro-1H-imidazo[4,5-c]pyridin-1-yl)cyclopentyl)carbamate]: the pIC50 was under 6.00 in experiment [1], at least 8.00 in experiment [2], at least 8.00 in experiment [3] and under 6.00 in experiment [4].

Regarding `[2H]C([2H])([2H])n1c(=O)n([C@@H]2CC[C@@H](NC(=O)OC)C2)c2cc(Nc3ccc4ncc(C(F)(F)F)n4n3)ncc21` [Example 31, Methyl ((1R,3R)-3-(3-(methyl-d3)-2-oxo-6-((3-(trifluoromethyl)imidazo[1,2-b]pyridazin-6-yl)amino)-2,3-dihydro-1H-imidazo[4,5-c]pyridin-1-yl)cyclopentyl)carbamate], the pIC50 in experiment [1] was under 6.00; in experiment [2], at least 8.00; in experiment [3] it was at least 8.00; in experiment [4] it was under 6.00.

`[2H]C([2H])([2H])n1c(=O)n([C@@H]2CC[C@@H](NC(=O)OC)C2)c2cc(Nc3ccc4cccc([N+](=O)[O-])c4n3)ncc21` [Example 35, Methyl ((1R,3R)-3-(3-(methyl-d3)-6-((8-nitroquinolin-2-yl)amino)-2-oxo-2,3-dihydro-1H-imidazo[4,5-c]pyridin-1-yl)cyclopentyl)carbamate]: the pIC50 in experiment [1] was under 6.00; in experiment [2], at least 8.00; in experiment [3] it was at least 8.00; in experiment [4] it was under 6.00.

`[2H]C([2H])([2H])n1c(=O)n([C@@H]2CC[C@@H](NC(=O)OC)C2)c2cc(Nc3ccc4nccc(C#N)c4n3)ncc21` [Example 36, Methyl ((1R,3R)-3-(6-((8-cyano-1,5-naphthyridin-2-yl)amino)-3-(methyl-d3)-2-oxo-2,3-dihydro-1H-imidazo[4,5-c]pyridin-1-yl)cyclopentyl)carbamate]: the pIC50 in experiment [1] was under 6.00; in experiment [2] it was at least 8.00; in experiment [3], at least 8.00; in experiment [4] it was under 6.00.

For `[2H]C([2H])([2H])n1c(=O)n([C@@H]2CC[C@@H](NC(=O)OC)C2)c2cc(Nc3cnc4cccc(C#N)c4n3)ncc21` [Example 37, Methyl ((1R,3R)-3-(6-((8-cyanoquinoxalin-2-yl)amino)-3-(methyl-d3)-2-oxo-2,3-dihydro-1H-imidazo[4,5-c]pyridin-1-yl)cyclopentyl)carbamate], the pIC50 is 6.30 to 7.00 in experiment [1], at least 8.00 in experiment [2], 7.00 to 8.00 in experiment [3] and 6.30 to 7.00 in experiment [4].

As for `COC(=O)N[C@@H]1CC[C@@H](n2c(=O)n(C)c3cnc(Nc4ccc5cccc(C(F)F)c5n4)cc32)C1` [Example 38, Methyl ((1R,3R)-3-(6-((8-(difluoromethyl)quinolin-2-yl)amino)-3-methyl-2-oxo-2,3-dihydro-1H-imidazo[4,5-c]pyridin-1-yl)cyclopentyl)carbamate], the pIC50 is under 6.00 in experiment [1], at least 8.00 in experiment [2], at least 8.00 in experiment [3] and under 6.00 in experiment [4].

For `COC(=O)N[C@@H]1CC[C@@H](n2c(=O)n(C)c3cnc(Nc4ccc5cccc(C)c5n4)cc32)C1` [Example 39, Methyl ((1R,3R)-3-(3-methyl-6-((8-methylquinolin-2-yl)amino)-2-oxo-2,3-dihydro-1H-imidazo[4,5-c]pyridin-1-yl)cyclopentyl)carbamate], the pIC50 in experiment [1] is under 6.00; in experiment [2] it was at least 8.00; in experiment [3] it was 7.00 to 8.00; in experiment [4], under 6.00.

Take `COC(=O)N[C@H]1CC[C@H](n2c(=O)n(C)c3cnc(Nc4ccc5cccc(Cl)c5n4)cc32)C1` [Example 40, Methyl ((1S,3S)-3-(6-((8-chloroquinolin-2-yl)amino)-3-methyl-2-oxo-2,3-dihydro-1H-imidazo[4,5-c]pyridin-1-yl)cyclopentyl)carbamate]: the pIC50 in experiment [1] was under 6.00; in experiment [2], at least 8.00; in experiment [3], 7.00 to 8.00; in experiment [4] it was under 6.00.

Turning to `COC(=O)N[C@@H]1CC[C@@H](n2c(=O)n(C)c3cnc(Nc4ccc5cccc(C(F)(F)F)c5n4)cc32)C1` [Example 41, Methyl ((1R,3R)-3-(3-methyl-2-oxo-6-((8-(trifluoromethyl)quinolin-2-yl)amino)-2,3-dihydro-1H-imidazo[4,5-c]pyridin-1-yl)cyclopentyl)carbamate], the pIC50 is under 6.00 in experiment [1], at least 8.00 in experiment [2], at least 8.00 in experiment [3] and under 6.00 in experiment [4].

For the compound `COC(=O)N[C@@H]1CC[C@@H](n2c(=O)n(C)c3cnc(Nc4ccc5ncc(C#N)n5n4)cc32)C1` [Example 42, Methyl ((1R,3R)-3-(6-((3-cyanoimidazo[1,2-b]pyridazin-6-yl)amino)-3-methyl-2-oxo-2,3-dihydro-1H-imidazo[4,5-c]pyridin-1-yl)cyclopentyl)carbamate], the pIC50 is under 6.00 in experiment [1], at least 8.00 in experiment [2], at least 8.00 in experiment [3] and under 6.00 in experiment [4].
